# Reference: ChEMBL document CHEMBL1201862, “PubChem BioAssay data set” (2004)
# Calls of active or inactive are those of the source.
# Legend:
# Large T antigen = Large T antigen (Simian virus 40, UniProt P03070); type: functional, Betapolyomavirus macacae;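 also: Confirmatory-stage PubChem screen for compounds that inhibit SV40 T antigen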
# [1] = target: T1, High affinity choline transporter 1 (Homo sapiens, UniProt Q9GZV3); assay: CHT inhibitors, dose response, cell-based, 5-point CRC, membrane potential dye (AID 504840); type: functional
# T1 sequence (Q9GZV3 whole entry): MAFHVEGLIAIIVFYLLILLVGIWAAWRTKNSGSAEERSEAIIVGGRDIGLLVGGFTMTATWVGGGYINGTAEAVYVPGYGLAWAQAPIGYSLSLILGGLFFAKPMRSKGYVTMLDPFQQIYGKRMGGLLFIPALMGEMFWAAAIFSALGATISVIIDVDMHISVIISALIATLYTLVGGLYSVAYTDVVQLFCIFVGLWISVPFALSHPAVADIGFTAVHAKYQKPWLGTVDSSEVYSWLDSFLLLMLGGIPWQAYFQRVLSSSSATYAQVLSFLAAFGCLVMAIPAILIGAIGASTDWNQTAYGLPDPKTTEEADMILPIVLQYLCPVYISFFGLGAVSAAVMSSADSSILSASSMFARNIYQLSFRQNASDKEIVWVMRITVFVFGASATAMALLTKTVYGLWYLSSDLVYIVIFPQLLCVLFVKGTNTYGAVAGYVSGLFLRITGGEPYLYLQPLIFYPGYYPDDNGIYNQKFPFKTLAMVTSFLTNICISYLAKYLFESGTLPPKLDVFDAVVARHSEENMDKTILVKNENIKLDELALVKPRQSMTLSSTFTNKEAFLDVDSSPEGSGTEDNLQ
# [2] = target: FAD-linked sulfhydryl oxidase ALR (Homo sapiens, UniProt P55789); assay: inhibitors of human ALR sulfhydryl oxidase, dose response, biochemical, H2O2 detection, luminescence, cherry-pick (AID 493248)
# [3] = target: T2, Corticotropin-releasing factor receptor 2/Corticotropin-releasing factor-binding protein (Homo sapiens, UniProt P24387+Q13324); assay: activators of CRF receptor 2 with binding protein – uHTS hits, confirmation (AID 602473); type: functional; settings: read-out: EC50_Mean
# T2 sequence (Q13324 whole entry): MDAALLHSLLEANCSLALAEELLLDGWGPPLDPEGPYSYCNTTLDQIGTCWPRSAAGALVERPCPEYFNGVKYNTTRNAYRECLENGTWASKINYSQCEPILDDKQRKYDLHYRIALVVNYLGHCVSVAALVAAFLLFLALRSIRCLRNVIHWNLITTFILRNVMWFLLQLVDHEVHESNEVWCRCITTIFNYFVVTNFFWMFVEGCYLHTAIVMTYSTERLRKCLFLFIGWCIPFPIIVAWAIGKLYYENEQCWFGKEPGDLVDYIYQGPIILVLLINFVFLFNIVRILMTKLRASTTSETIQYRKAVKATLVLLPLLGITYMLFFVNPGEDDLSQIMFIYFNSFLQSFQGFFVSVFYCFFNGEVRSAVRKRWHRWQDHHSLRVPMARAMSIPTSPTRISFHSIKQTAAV
# T2 sequence (P24387 whole entry): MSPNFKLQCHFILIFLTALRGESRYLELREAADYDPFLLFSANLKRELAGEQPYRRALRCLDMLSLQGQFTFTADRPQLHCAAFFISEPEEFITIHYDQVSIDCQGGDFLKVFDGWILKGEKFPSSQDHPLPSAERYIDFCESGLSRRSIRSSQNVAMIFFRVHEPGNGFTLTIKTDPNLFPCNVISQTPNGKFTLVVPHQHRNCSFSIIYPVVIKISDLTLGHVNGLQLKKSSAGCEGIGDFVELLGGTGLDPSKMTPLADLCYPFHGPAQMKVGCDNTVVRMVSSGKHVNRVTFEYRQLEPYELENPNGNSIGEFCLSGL
# [4] = target: T2, Corticotropin-releasing factor receptor 2/Corticotropin-releasing factor-binding protein; assay: Dose Response confirmation of uHTS hits for small molecule antagonists of the CRF-binding protein and CRF-R2 receptor complex.; type: functional; settings: read-out: IC50_Mean
# Streptococcus = assay: Group A Streptococcus viability loss, dose response, counter-screen for streptokinase expression inhibitor project, luminescence, BacTiterGlo (AID 1915); type: functional, organism-based;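 also: potency for reduction of bacterial viability or growth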
# Streptokinase A = target: T3, Streptokinase A (Streptococcus pyogenes serotype M1, UniProt P10520); assay: S. pyogenes streptokinase expression inhibitors, potency, dose response, plasminogen activation absorbance, OD405 (AID 1914); type: functional, Streptococcus pyogenes M1 GAS;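 also: secreted streptokinase activity via plasminogen activation per viability signal from cell pellet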
# T3 sequence (P10520 whole entry): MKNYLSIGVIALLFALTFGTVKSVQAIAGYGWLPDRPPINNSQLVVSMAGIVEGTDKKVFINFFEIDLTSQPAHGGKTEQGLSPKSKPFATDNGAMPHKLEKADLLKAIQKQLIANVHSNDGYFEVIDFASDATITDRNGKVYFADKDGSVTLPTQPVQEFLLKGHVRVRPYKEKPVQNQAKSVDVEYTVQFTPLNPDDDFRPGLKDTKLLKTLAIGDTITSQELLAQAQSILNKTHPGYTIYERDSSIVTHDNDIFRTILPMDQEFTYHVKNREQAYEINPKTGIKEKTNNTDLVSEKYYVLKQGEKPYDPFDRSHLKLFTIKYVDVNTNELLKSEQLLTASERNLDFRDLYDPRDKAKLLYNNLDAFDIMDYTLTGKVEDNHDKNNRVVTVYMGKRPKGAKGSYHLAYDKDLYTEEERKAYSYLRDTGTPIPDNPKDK
# [5] = test system: Streptococcus sp. 'group A'; assay: growth inhibition of control SK(-) GAS strain, dose response, counter-screen for streptokinase expression inhibitor project, luminescence, kanamycin, BacTiterGlo, confirmation (AID 1900); type: functional, organism-based
# [6] = target: T4, Rac GTPase-activating protein 1 (Homo sapiens, UniProt Q9H0H5); assay: MgcRacGAP GTPase-activating activity inhibitors, confirmation, biochemical, ADP Hunter fluorescence, primary and confirmatory (AID 624330); type: functional
# T4 sequence (Q9H0H5 whole entry): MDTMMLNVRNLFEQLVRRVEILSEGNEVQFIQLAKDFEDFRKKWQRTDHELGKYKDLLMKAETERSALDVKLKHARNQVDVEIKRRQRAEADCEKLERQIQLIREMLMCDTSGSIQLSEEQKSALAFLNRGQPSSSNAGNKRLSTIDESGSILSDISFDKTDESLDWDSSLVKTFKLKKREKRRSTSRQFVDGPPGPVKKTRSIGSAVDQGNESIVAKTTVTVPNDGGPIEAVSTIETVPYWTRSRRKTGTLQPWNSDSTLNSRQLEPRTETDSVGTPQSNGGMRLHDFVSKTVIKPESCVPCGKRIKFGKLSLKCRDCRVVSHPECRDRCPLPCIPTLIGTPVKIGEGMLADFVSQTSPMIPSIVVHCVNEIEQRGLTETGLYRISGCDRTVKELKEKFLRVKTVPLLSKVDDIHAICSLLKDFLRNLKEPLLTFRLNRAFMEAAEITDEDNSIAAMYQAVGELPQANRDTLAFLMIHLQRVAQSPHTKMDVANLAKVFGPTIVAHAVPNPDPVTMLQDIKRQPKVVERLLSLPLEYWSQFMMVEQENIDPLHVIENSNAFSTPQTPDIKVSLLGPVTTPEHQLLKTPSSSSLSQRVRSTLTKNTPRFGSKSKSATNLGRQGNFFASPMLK
# Paired box protein Pax-8 = Paired box protein Pax-8 (Homo sapiens, UniProt Q06710); assay: inhibitors of PAX8-driven TPO luciferase reporter, dose response, RMG-I cells, cherry-pick (AID 687027); type: functional, cell-based;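 also: luciferase reporter driven by Pax8 target thyroperoxidase promoter measured by SteadyGlo luminescence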
# Paired box protein Pax-8, sequence (Q06710 whole entry): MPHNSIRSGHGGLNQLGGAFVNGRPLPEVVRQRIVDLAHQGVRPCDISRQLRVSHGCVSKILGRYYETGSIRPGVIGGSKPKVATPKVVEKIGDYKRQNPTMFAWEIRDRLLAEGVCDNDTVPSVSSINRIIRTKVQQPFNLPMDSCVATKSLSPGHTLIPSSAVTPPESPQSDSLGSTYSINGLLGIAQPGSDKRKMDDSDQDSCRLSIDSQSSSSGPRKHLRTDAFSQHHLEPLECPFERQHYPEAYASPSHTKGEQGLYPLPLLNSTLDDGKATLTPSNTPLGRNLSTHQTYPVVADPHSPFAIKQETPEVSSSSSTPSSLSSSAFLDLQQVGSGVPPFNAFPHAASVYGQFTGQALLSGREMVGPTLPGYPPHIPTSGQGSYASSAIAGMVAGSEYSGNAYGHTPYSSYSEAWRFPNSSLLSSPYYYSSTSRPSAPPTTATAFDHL
# Large T antigen, sequence (P03070 whole entry): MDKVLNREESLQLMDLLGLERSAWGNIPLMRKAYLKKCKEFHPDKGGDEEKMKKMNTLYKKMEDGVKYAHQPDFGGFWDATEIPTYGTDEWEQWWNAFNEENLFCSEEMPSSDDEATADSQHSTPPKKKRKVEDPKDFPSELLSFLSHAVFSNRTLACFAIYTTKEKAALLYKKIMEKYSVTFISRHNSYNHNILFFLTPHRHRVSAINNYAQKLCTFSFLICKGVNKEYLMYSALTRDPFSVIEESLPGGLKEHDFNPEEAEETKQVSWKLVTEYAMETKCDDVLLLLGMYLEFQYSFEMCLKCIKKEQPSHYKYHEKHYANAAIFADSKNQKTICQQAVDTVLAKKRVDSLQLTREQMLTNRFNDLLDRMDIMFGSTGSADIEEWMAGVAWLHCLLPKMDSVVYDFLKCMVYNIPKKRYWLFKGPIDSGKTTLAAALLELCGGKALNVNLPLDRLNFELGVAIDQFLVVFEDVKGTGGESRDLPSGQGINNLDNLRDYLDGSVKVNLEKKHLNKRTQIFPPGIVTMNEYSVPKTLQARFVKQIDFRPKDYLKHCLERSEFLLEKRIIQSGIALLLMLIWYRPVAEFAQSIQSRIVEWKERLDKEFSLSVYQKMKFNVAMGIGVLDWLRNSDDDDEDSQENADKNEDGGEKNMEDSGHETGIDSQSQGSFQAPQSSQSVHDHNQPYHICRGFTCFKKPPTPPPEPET
# FAD-linked sulfhydryl oxidase ALR, sequence (P55789 whole entry): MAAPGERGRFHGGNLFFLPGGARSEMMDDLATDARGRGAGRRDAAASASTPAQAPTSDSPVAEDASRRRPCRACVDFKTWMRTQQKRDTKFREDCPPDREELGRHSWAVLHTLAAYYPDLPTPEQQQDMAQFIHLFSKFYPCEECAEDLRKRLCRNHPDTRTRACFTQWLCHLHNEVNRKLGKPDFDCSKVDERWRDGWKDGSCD
smiles,measurement,setting,value
COc1cc(CNc2ccc(N3CCCCC3)cc2)ccc1OCC(=O)NC(C)(C)C,IC50,Large T antigen,12.5 µM (active)
same,IC50,[1],6.55 µM (active)
O=C1NC(=S)S/C1=C/c1ccc(N2CCOCC2)o1,IC50,Large T antigen,18.4 µM (active)
COc1cc(-c2nc3cnccn3c2NC(C)(C)CC(C)(C)C)ccc1O,AC50,[2],4.22 µM (active)
Cc1cccc2c(CCNC(=O)c3ccc([N+](=O)[O-])cc3)c[nH]c12,EC50,[3],> 53 µM (inactive)
same,IC50,[4],> 47.1 µM (inactive)
CN1CC(=O)N(CC(=O)N2CCC(Cc3ccccc3)CC2)C1=O,EC50,[3],> 53 µM (inactive)
same,IC50,[4],> 47.1 µM (inactive)
COc1ccc(N2CCN(C(=O)c3cc(C)oc3C)CC2)cc1,EC50,Streptococcus,> 150 µM (not active)
same,EC50,Streptokinase A,> 150 µM (not active)
same,EC50,[5],> 150 µM (not active)
CCOC(=O)c1ccc(NC(=O)CN2C(=O)CSC2=O)cc1,EC50,[3],> 53 µM (inactive)
same,IC50,[4],> 47.1 µM (inactive)
CCn1c(SCC(=O)Nc2ccc(N(C)C)cc2)nnc1C1CC1,IC50,Large T antigen,9.49 µM (active)
COC(=O)c1ccc(CSc2nc3ccccc3c(=O)n2Cc2ccco2)o1,AC50,[2],4.51 µM (active)
Cc1cc(-c2cc(C)c(N)cc2C)c(C)cc1N,IC50,[6],101 µM (active)
COc1ccc(NC2CCCN(C(=O)CCc3cccc(F)c3)C2)cc1 (stereo not drawn),IC50,[6],74.6 µM (active)
C[C@@H]1CN([C@@H](C)CO)C(=O)Cc2cc(NC(=O)CCC(F)(F)F)ccc2O[C@H]1CN(C)Cc1ccc(-c2ccccc2)cc1,AC50,Paired box protein Pax-8,8.61 µM (active)
CC(=NNc1cc(C)c2ccccc2n1)c1ccccn1,AC50,Paired box protein Pax-8,7.4 µM (active)
CC(C)C(=O)c1ccc(O)c(O)c1,IC50,Large T antigen,30.9 µM (active)
COc1ccc(S(=O)(=O)Nc2nc3ccccc3nc2NCc2ccc3c(c2)OCO3)cc1,EC50,[3],> 53 µM (inactive)
same,IC50,[4],> 47.1 µM (inactive)
COc1ccc(NC(=O)NS(=O)(=O)c2ccc(C)cc2)cc1OC,IC50,[6],36 µM (active)
